In patent publication US20080200535A1, “Amine Compounds” (Asahi Kasei Pharma Corporation, priority 2006, published 2008):

Key:
S1P3 receptor = biological target: T1, S1P3 receptor (Homo sapiens, UniProt Q99500); experiment: 35S-GTPγS binding assay using membrane preparation of CHO cell temporarily expressing S1P3 receptor; assay type: biochemical; details: agonist activity, membrane of CHO cell temporarily transfected with S1P3 gene
T1 construct: expressed in transfected cells; host or cells: CHO cells, transient transfection; membrane protein
Method: ^35s-GTPγS binding assay using membrane preparation of CHO cell of temporarily expressing S1P3 receptor
A GTPγS binding test associated with S1P3 receptor was performed by using the same method as that of the GTPγS binding test associated with S1P1 receptor. In the test, a membrane protein which was produced from a CHO cell in which S1P3 gene was temporarily transfected was used.
(§1) For the agonist activity of compound, the value of a well which a solvent was added to was set to a control value and compared with an increment of an evaluation compound-added well, so that the increment of each concentration of the compound was obtained. EC50 value was calculated under the definition that the value is an agonist concentration required to provide 50% of the highest increment thereof.

S1P1 receptor = biological target: T2, S1P1 receptor (Homo sapiens, UniProt P21453); experiment: 35S-GTPγS binding assay using membrane preparation of CHO cell stably expressing S1P1 receptor; assay type: biochemical; details: agonist activity
T2 construct: expressed in transfected cells; membrane preparation
Method: ^35s-GTPγS binding assay using membrane preparation of CHO cell stably expressing S1P1 receptor
A G protein-GTPγS binding test associated with a ligand was performed by using a membrane preparation which was obtained from a CHO cell which stably overexpressed S1P1 receptor. In a 96 well-micro-titer dish, the produced membrane protein and a compound which was diluted with a solvent such as DMSO or sphingosine-1-phosphate in various concentrations was incubated in a solution containing 20 mM of Tris-Cl (pH7.5), 100 mM of NaCl, 10 mM of MgCl2, 5μM of GDP, 0.1% of BSA, and […] of ^35s-GTPγS (specific radioactivity, 1250 Ci mmol). The binding was performed for 1 or more hours at room temperature, and the membrane was harvested on a GF/B filter plate by using a Millipore's MultiScreen Separation System to end the binding. After the filter plate was dried for 30 or more minutes, 25 μL of MicroScint-20 was added to each well, and the binding was measured by using the TopCount.
as §1, with “maximum” for “highest”, “thereof. […]” for “thereof.”

peripheral lymphocytes = experiment: Evaluation of reduction in peripheral blood lymphocyte count; assay type: in vivo; details: 3 h; rat, oral; dose required to reduce the lymphocyte count by 50% in three hours from the administration
Method: Evaluation of Reduction in Peripheral Blood Lymphocyte count
A compound or a solvent was orally administered to a rat. When 3, 6, 24, 48, and 72 hours had elapsed since the administration of compound, blood was withdrawn from its tail vein. All the blood samples were analyzed hematologically. The total count of peripheral lymphocytes was measured by using an auto-analyzer (Sysmex 2000Xi). The effect of each compound to the total count of peripheral lymphocytes was evaluated by using three or more rats in one group. The reduction in lymphocyte count caused by the administration of compound was compared with that caused by the administration of solvent to a rat group. Namely, the average lymphocyte count of a solvent-administered group was set to 100%, and a control value (%) was calculated from the average lymphocyte count of a compound-administered group. An ED50 value, that is, a dosed amount of the compound required to reduce the lymphocyte count by 50% in three hours from the administration was calculated from the dosed amount of the compound and the control value (%).

adjuvant arthritis rat = experiment: Adjuvant-induced arthritis model; assay type: in vivo; details: 504 h, Lewis female rats, oral once daily for 21 days, dose required to suppress swelling of hind paw by 50% on the 21-th day
Method: Adjuvant-Induced Arthritis Model
7-weeks old Lewis female rats are used for evaluation. The volume of a hind paw of a rat was measured. As an adjuvant, 500 μg/100 μL of M. tuberclulosis H37 RA (manufactured by Difco) is subcutaneously injected into the plantar of the left hind paw, so that an adjuvant arthritis rat is produced. A compound which is suspended in a 1% methylcellulose solution is forcibly oral-administered to the stomach by using an oral sonde one-time everyday for 21 days from the injection date of the adjuvant. The evaluation of arthritis is performed by measuring the volume of paw of each tested subject by using PLETHYSMOMETER (manufactured by UGO BASILE) and comparing the measured deta of a compound-administered group with those of a solvent-administered group. Swelling of the plantar portion of hind leg of the solvent-administered group was set to 100%, and a control value (%) was calculated from the swelling of the compound-administered group. An ED50 value, that is, a dosed amount of the compound required to suppress the swelling of the plantar portion of hind paw on the 21-th day from the administration date of the adjuvant by 50% was calculated from the dosed amount of the compound and the control value (%).

T2 sequence (P21453 whole entry): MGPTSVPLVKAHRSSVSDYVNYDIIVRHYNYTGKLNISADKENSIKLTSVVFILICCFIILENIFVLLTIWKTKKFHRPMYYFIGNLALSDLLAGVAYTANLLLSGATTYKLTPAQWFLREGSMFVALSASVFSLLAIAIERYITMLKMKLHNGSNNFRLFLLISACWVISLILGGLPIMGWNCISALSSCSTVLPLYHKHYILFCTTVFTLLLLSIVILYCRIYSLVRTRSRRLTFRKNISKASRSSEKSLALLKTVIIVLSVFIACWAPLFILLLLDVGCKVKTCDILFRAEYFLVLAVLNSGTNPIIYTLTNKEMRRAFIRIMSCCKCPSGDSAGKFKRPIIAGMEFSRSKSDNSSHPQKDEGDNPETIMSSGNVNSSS
T1 sequence (Q99500 whole entry): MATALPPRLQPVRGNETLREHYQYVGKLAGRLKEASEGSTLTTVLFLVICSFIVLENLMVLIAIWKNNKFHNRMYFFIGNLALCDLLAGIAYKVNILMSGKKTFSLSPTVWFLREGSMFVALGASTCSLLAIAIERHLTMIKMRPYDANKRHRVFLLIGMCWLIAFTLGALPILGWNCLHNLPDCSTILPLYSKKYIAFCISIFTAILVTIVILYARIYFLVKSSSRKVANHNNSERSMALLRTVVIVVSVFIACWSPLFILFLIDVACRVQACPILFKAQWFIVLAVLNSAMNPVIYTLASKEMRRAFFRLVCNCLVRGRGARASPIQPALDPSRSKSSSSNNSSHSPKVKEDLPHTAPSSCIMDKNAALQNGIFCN

SMILES | EC50 (S1P3 receptor) [nM] | EC50 (S1P1 receptor) [nM] | ED50 (peripheral lymphocytes) [mg/kg] | ED50 (adjuvant arthritis rat) [mg/kg]
O=C(O)[C@H]1CCC[C@H](NCc2ccc(OCc3cc(-c4ccccc4)c(C(F)(F)F)s3)cc2)C1 [Example 4] | 870 | 34 |  | 
O=C(O)C1CC(NCc2ccc(OCc3cc(-c4ccccc4)c(C(F)(F)F)s3)cc2)C1 (stereo not shown) [Example 6] |  |  | 5.1 | 
O=C(O)[C@H]1CC[C@H](NCc2ccc(OCc3cc(-c4ccccc4)c(C(F)(F)F)s3)cc2)C1 [Example 25] | 117 | 4 |  | 
CC(C)COc1ccc(-c2nc(-c3ccc(CNCCC(=O)O)cc3)no2)cc1C(F)(F)F.Cl [Example 46] |  | 0.5 | 2.1 | 
Cl.O=C(O)CCNCc1ccc(-c2noc(C3CCC(c4ccccc4)CC3)n2)cc1 (stereo not shown) [Example 61] |  | 1.5 | 0.53 | 
Cl.N#Cc1ccccc1-c1ccc(-c2nc(-c3ccc(CNCCC(=O)O)cc3)no2)cc1C(F)(F)F [Example 93] |  | 0.48 | 0.64 | 
Cl.O=C(O)CCNCc1ccc(-c2noc(-c3ccc(CCC(F)(F)F)cc3)n2)cc1 [Example 104] |  | 2.1 | 0.7 | 
Cl.N#Cc1ccccc1-c1ccc(-c2nc(-c3ccc(CNCCC(=O)O)cc3)no2)cc1OC(F)(F)F [Example 106] |  | 1.2 | 0.5 | 
CC(C)Oc1ccc(-c2nc(-c3ccc(CN[C@H]4C[C@H](C(=O)O)C4)cc3)no2)cc1C(F)(F)F [Example 135] |  | 0.72 | 0.16 | 0.21
Cc1cc(CNCCC(=O)O)ccc1-c1noc(-c2ccc(-c3ccccc3C#N)c(C)c2)n1 [Example 145] |  | 0.2 | 0.46 | 
Cc1cc(CNC2CC(C(=O)O)C2)ccc1-c1noc(-c2ccc(-c3ccccc3C#N)c(C)c2)n1 (stereo not shown) [Example 147] |  | 2.4 | 0.72 | 

The next lines start with results.

EC50 (S1P3 receptor) [nM] | EC50 (S1P1 receptor) [nM] | SMILES | ED50 (peripheral lymphocytes) [mg/kg] | ED50 (adjuvant arthritis rat) [mg/kg]
 | 0.5 | CC(C)Cc1ccc(-c2nc(-c3ccc(CNCCC(=O)O)cc3)no2)cc1.Cl [Example 40] | 0.71 | 
 | 0.34 | Cc1cc(-c2nc(-c3ccc(CNCCC(=O)O)cc3)no2)ccc1-c1ccccc1.Cl [Example 54] | 0.44 | 0.33
 | 0.26 | Cc1cc(-c2nc(-c3ccc(CNCCC(=O)O)cc3)no2)ccc1-c1ccccc1C#N.Cl [Example 78] | 0.37 | 
 | 1.4 | Cl.N#Cc1ccccc1-c1ccc(-c2nc(-c3ccc(CNCCC(=O)O)cc3)no2)cc1C#N [Example 90] | 4.1 | 
 | 0.25 | Cl.O=C(O)CCNCc1ccc(-c2noc(-c3ccc(-c4ccccc4)c(C(F)(F)F)c3)n2)cc1 [Example 94] | 0.087 | 
 | 0.49 | Cl.O=C(O)CCNCc1ccc(-c2noc(-c3ccc(-c4ccccc4)c(OC(F)(F)F)c3)n2)cc1 [Example 105] | 0.084 | 
 | 0.07 | Cc1cc(-c2nc(-c3ccc(CNCCC(=O)O)cc3)no2)ccc1-c1ccoc1.Cl [Example 117] | 0.88 | 
